Consider 13 compounds from ChEMBL document CHEMBL5335825, “Multi-target potential of newly designed tacrine-derived cholinesterase inhibitors: Synthesis, computational and pharmacological study” (Bioorg Med Chem, 2024).

The source made the active and inactive calls. The calls are words filed in the database; no cut-off is given here.

One data set deals with Cholinesterase (Equus caballus, UniProt P81908). The data set is described as follows: Inhibition of equine serum BuChE using butyrylthiocholine iodide as substrate preincubated for 10 mins followed by substrate addition and measured every min for 10 mins by DTNB based Ellman's assay. In general terms: DTNB colorimetry detects thiols as they appear.
Data set [1] in a line: Selectivity index, ratio of IC50 for cytotoxicity against human SH-SY5Y cells to IC50 for inhibition of equine serum BuChE.
A short description of data set [2]: Selectivity index, ratio of IC50 for cytotoxicity against human SH-SY5Y cells to IC50 for inhibition of electric eel AChE.
In the next data set the target is Acetylcholinesterase (Electrophorus electricus, UniProt O42275). The data set is described as follows: Inhibition of electric eel AChE using acetylthiocholine iodide as substrate preincubated for 10 mins followed by substrate addition and measured every min for 10 mins by DTNB based Ellman's assay.
A further data set is described as follows: in vitro. Particulars: human, SH-SY5Y cells.
For data set [3], the target named is Cholinesterase (Equus caballus) (UniProt P81908). The data set is described as follows: Mixed type inhibition of equine serum BuChE using varying concentrations of butyrylthiocholine iodide as substrate assessed as decrease in Vmax with varied Km by Lineweaver-Burk plot analysis.
The target in data set [4] is Acetylcholinesterase (Electrophorus electricus) (UniProt O42275). The data set is described as follows: Mixed type inhibition of electric eel AChE using varying concentrations of acetylthiocholine iodide as substrate assessed as decrease in Vmax with varied Km by Lineweaver-Burk plot analysis.
Acetylcholinesterase (Electrophorus electricus), sequence (O42275 24-633 limits assumed): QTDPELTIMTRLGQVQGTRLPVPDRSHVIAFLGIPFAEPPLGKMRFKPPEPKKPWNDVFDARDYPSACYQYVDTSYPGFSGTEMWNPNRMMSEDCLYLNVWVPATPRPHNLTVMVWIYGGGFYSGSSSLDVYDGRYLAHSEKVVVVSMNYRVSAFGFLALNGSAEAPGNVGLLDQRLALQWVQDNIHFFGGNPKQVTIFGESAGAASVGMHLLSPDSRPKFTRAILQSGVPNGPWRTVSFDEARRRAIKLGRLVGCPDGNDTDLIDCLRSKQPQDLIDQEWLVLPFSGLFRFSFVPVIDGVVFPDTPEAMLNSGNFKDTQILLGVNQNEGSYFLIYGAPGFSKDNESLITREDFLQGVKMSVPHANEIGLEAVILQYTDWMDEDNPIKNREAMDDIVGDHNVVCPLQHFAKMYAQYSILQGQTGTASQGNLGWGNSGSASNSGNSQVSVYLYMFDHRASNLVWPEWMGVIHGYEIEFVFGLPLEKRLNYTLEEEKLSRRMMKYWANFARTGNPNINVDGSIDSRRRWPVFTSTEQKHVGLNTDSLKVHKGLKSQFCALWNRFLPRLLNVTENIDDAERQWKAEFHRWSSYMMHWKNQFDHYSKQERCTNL

Cholinesterase, sequence (P81908 whole entry): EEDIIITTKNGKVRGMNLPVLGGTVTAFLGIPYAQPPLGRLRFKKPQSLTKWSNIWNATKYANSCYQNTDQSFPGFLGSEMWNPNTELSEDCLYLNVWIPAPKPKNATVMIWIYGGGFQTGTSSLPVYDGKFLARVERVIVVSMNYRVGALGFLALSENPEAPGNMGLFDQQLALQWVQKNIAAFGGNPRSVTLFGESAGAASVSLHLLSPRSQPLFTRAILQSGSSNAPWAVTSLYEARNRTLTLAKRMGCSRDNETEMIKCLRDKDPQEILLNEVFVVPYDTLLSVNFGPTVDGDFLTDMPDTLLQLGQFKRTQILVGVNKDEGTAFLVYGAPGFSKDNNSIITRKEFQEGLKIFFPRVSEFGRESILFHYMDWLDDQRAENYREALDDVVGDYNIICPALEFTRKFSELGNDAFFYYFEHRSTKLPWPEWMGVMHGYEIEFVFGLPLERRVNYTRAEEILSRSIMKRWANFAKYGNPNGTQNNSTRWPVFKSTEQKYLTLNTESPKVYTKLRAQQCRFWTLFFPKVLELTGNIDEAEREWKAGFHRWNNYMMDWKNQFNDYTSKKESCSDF
Acetylcholinesterase, sequence (O42275 whole entry): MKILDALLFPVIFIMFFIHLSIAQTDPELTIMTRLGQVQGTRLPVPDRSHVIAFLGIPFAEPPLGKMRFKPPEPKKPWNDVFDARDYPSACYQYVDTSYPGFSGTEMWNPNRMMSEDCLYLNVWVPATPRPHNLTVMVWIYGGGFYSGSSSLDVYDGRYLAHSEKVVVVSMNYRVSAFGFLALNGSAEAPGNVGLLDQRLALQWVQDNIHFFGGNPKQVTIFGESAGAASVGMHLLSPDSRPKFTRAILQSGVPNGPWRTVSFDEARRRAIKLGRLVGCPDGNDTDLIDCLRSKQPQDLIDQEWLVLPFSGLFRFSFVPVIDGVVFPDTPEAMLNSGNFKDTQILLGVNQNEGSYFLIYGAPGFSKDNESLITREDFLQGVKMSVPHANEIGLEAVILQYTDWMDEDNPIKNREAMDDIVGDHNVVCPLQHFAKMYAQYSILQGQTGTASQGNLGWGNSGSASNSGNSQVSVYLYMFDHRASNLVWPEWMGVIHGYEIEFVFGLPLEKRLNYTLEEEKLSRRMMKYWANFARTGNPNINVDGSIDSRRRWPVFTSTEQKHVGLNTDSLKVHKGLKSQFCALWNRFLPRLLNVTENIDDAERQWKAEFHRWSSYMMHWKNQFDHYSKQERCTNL
Cholinesterase (Equus caballus), sequence (P81908 whole entry): as the sequence (P81908 whole entry) above
Description for in vitro: Cytotoxicity against human SH-SY5Y cells assessed as reduction in cell viability incubated for 24 hrs by crystal violet staining based analysis

`O=C(NCCCCCNc1c2c(nc3ccccc13)CCCC2)C1CCN(C(=O)c2ccncc2)CC1`: the IC50 at Cholinesterase came out at 84 nM; at Acetylcholinesterase it was 291 nM. Also, the “Ratio IC50” value in data set [1] worked out at 1635.1; in data set [2] it was 472. The compound also gave a concentration for half-maximal inhibition (IC50) at 24 h in “in vitro” of 137000 nM.
`O=C(NCCCCCNc1c2c(nc3ccccc13)CCCC2)C1CCN(C(=O)c2ccccc2Cl)CC1`: the IC50 against Cholinesterase was 82.5 nM; against Acetylcholinesterase it was 156 nM. The inhibition entry in data set [3] and in data set [4] was “Active” each time. The “Ratio IC50” value is listed as 2247.9 in data set [1] and 1188.8 in data set [2]. Further, the concentration for half-maximal inhibition (IC50) at 24 h in the data set “in vitro” was 186000 nM.
On to `O=C(NCCCCCNc1c2c(nc3ccccc13)CCCC2)C1CCN(C(=O)c2ccccc2F)CC1`, for which the IC50 against Cholinesterase was 34 nM; at Acetylcholinesterase, 241 nM. Besides, in the data set “in vitro”, the IC50 at 24 h came out at 192000 nM.
`O=C(NCCCCCNc1c2c(nc3ccccc13)CCCC2)C1CCN(C(=O)c2ccccc2)CC1`: the half-maximal inhibitory concentration (IC50) at Cholinesterase came to 46.5 nM; on Acetylcholinesterase, 117 nM. In addition, the entries for the “Ratio IC50” value in data set [1] and in data set [2] were 1490.3 and 589.8, respectively. The same compound displayed an IC50 at 24 h in “in vitro” of 69300 nM.
As for `O=C(NCCCCCNc1c2c(nc3ccccc13)CCCC2)C1CCN(C(=O)c2ccccn2)CC1`, the IC50 at Cholinesterase was found to be 324 nM; against Acetylcholinesterase it was 455 nM. The “Ratio IC50” value in data set [1] came to 347.1; in data set [2], 247.1. This compound gave an IC50 at 24 h in the data set “in vitro” of 112000 nM.
Consider `O=C(NCCCCCNc1c2c(nc3ccccc13)CCCC2)C1CCN(C(=O)c2cccc(Cl)c2)CC1`, for which the IC50 against Cholinesterase worked out at 70.5 nM; on Acetylcholinesterase, 159 nM. The “Ratio IC50” value came out at 2082.3 in data set [1] and 926.2 in data set [2]. In “in vitro”, the IC50 at 24 h turned out to be 147000 nM.
`O=C(NCCCCCNc1c2c(nc3ccccc13)CCCC2)C1CCN(C(=O)c2ccc(Cl)cc2)CC1`: the IC50 was 114 nM on Cholinesterase and 443 nM on Acetylcholinesterase. Besides, the entries for the “Ratio IC50” value in data set [1] and in data set [2] were 268.5 and 69.4, respectively. In addition, the IC50 at 24 h in the data set “in vitro” came out at 30700 nM.
As to `O=C(NCCCCCNc1c2c(nc3ccccc13)CCCC2)C1CCN(C(=O)c2ccc(F)cc2)CC1`, the IC50 on Cholinesterase amounted to 154 nM; against Acetylcholinesterase, 370 nM.
`O=C(NCCCCCNc1c2c(nc3ccccc13)CCCC2)C1CCN(C(=O)c2cccnc2)CC1`: the results for the IC50 at Cholinesterase and on Acetylcholinesterase were 98.5 nM and 162 nM, respectively.
As to `COc1ccccc1C(=O)N1CCC(C(=O)NCCCCCNc2c3c(nc4ccccc24)CCCC3)CC1`, the IC50 was found to be 48 nM against Cholinesterase and 226 nM against Acetylcholinesterase. In addition, the figures for the “Ratio IC50” value in data set [1] and in data set [2] were 2266.7 and 480.4, respectively. The same compound had an IC50 at 24 h in “in vitro” of 109000 nM.
`COc1ccc(C(=O)N2CCC(C(=O)NCCCCCNc3c4c(nc5ccccc35)CCCC4)CC2)cc1`: the IC50 on Cholinesterase came out at 246 nM; on Acetylcholinesterase, 222 nM. Further, the “Ratio IC50” value worked out at 605.3 in data set [1] and 667.9 in data set [2]. Moreover, the IC50 at 24 h in the data set “in vitro” came to 149000 nM.
The corresponding values for `COc1cccc(C(=O)N2CCC(C(=O)NCCCCCNc3c4c(nc5ccccc35)CCCC4)CC2)c1` are 60.5 nM, 287 nM, 1546.3, 326 and 93600 nM.
The corresponding values for `O=C(NCCCCCNc1c2c(nc3ccccc13)CCCC2)C1CCN(C(=O)c2cccc(F)c2)CC1` are 73.5 nM, 139 nM, 789, 417.2 and 58000 nM.

Usually IC50 stands for the concentration needed to halve the response being measured. A lower IC50 goes with greater potency in that assay.
